Earlier results in US10251905B2, “Tissue maintenance” (Hibernation Therapeutics, A KF LLC, priority 2006, dated 2019).

Experiments:
human NK(1) receptor = human NK(1) receptor (Homo sapiens, UniProt P25103)
NK(2) receptor = target: T1, NK(2) receptor (Homo sapiens, UniProt P21452); details: relative to NK(1)
T1 sequence (P21452 1-398): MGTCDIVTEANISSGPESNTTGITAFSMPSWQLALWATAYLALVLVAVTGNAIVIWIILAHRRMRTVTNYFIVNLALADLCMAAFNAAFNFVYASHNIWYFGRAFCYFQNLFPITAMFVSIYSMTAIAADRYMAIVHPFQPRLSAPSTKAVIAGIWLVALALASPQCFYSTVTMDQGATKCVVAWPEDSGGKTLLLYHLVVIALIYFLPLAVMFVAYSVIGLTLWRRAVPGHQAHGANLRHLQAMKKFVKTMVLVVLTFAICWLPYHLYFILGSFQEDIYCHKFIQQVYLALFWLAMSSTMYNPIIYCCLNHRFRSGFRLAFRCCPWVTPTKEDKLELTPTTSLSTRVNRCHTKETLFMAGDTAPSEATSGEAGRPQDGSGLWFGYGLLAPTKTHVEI

NK(3) receptor = target: T2, NK(3) receptor (Homo sapiens, UniProt P29371); details: relative to NK(1)
T2 sequence (P29371 1-465): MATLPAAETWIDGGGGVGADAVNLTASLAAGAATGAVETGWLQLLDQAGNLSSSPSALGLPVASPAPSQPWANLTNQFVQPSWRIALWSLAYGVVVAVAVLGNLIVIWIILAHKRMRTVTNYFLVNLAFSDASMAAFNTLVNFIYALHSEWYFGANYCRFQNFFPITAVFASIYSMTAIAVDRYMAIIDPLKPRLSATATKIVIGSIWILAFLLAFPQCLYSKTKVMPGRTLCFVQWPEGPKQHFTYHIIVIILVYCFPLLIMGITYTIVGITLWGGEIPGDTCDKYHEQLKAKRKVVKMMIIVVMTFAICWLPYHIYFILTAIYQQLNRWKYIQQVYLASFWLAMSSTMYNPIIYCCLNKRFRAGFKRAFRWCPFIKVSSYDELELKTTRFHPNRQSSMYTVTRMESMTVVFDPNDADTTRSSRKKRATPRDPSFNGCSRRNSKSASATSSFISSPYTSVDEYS

Sequence of human NK(1) receptor (P25103 whole entry): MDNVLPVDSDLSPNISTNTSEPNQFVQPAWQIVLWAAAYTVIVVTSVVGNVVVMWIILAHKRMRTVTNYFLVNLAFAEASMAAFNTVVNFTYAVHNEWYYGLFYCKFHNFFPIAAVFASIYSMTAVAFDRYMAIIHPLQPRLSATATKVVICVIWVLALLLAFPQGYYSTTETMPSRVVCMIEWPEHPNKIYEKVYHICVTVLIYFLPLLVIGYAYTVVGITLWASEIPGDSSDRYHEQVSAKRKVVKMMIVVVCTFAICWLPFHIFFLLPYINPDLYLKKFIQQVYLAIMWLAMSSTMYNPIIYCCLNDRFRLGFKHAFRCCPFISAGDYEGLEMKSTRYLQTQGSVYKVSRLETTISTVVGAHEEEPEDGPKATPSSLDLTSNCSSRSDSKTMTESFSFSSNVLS

Row | Structure (SMILES) | half life in the blood | Ki (human NK(1) receptor) [pM] | selectivity toward NK(2) receptors (NK(2) receptor) | selectivity toward NK(3) receptors (NK(3) receptor)
1 | Nc1ncnc2c1ncn2[C@@H]1O[C@H](CO)[C@@H](O)[C@H]1O [adenosine] | about 10 seconds |  |  | 
2 | Cc1cccc(C)c1NC(=O)C[C@H]1CCN(C(=O)c2cc(C(F)(F)F)cc(C(F)(F)F)c2)[C@@H](Cc2ccccc2)C1.O=C(O)C[C@H](O)C(=O)O (relative stereo) [R116301, (2R-trans)-4-[1-[3,5-bis(trifluoromethyl)benzoyl]-2-(phenylmethyl)-4-piperidinyl]-N-(2,6-dimethylphenyl)-1-acetamide (S)-Hydroxybutanedioate] |  | 450 | over 200 fold | over 200 fold
